Data reported in paper PMC7178874, “The antibiotic furagin and its derivatives are isoform-selective human carbonic anhydrase inhibitors” (Journal of Enzyme Inhibition and Medicinal Chemistry, 2020).

How the values were obtained:
Assay in all cases: stopped-flow CO2 hydration assay
Type in all cases: biochemical
hCA XII = target: T1, hCA XII (Homo sapiens, UniProt O43570); details: read-out: KI (nM)* / CA XII
T1 construct: gene CA12; recombinant, obtained in-house
From the text: stopped-flow CO2 hydration assay on hCA XII

hCA I = target: T2, hCA I (Homo sapiens, UniProt P00915); details: read-out: KI (nM)* / CA I (converted)
T2 construct: gene CA1; recombinant, obtained in-house
T2 sequence (P00915 2-261): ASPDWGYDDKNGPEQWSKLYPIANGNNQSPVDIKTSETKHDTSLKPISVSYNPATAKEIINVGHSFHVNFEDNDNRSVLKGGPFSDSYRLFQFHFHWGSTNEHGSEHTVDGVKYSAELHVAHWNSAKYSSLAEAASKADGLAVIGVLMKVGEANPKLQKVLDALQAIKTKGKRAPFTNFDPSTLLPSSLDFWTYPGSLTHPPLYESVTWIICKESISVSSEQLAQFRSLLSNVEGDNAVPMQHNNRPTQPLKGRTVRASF
From the text: stopped-flow CO2 hydration assay on hCA I

hCA II = target: T3, hCA II (Homo sapiens, UniProt P00918); details: read-out: KI (nM)* / CA II (converted)
T3 construct: gene CA2; recombinant, obtained in-house
From the text: stopped-flow CO2 hydration assay on hCA II

hCA IX = target: T4, hCA IX (Homo sapiens, UniProt Q16790); details: read-out: KI (nM)* / CA IX
T4 construct: gene CA9; recombinant, obtained in-house
From the text: stopped-flow CO2 hydration assay on hCA IX

T1 sequence (O43570 25-354 limits assumed): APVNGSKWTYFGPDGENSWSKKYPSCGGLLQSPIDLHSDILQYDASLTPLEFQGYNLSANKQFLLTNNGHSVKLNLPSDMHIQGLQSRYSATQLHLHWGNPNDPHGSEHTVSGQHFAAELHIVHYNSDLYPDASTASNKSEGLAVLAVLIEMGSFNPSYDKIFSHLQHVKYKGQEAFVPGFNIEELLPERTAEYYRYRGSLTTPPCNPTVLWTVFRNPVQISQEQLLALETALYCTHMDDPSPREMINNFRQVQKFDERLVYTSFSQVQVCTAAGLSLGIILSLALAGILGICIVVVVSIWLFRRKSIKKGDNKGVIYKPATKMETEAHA

SMILES | Ki (hCA XII) | Ki (hCA I) | Ki (hCA II) | Ki (hCA IX)
O=C1CN(/N=C/C=C/c2ccc([N+](=O)[O-])o2)C(=O)N1 [Furagin] | 57 nM | > 100000 nM | 9600 nM | 260 nM
CC(C)=CC=NN1CC(=O)NC1=O [compound 10, 1-((3-Methylbut-2-en-1-ylidene)amino)imidazolidine-2,4-dione] | 880 nM | 28800 nM | 16500 nM | 2900 nM
O=C1CN(N=Cc2cnc[nH]2)C(=O)N1 [compound 17, 1-(((1 h-Imidazol-5-yl)methylene)amino)imidazolidine-2,4-dione] | 350 nM | 9600 nM | 12400 nM | 560 nM
O=C1CN(N=Cc2ccoc2)C(=O)N1 [compound 7, 1-((Furan-3-ylmethylene)amino)imidazolidine-2,4-dione] | 1700 nM | 16800 nM | 710 nM | 850 nM
O=C1CN(N=Cc2cccnc2)C(=O)N1 [compound 15, 1-((Pyridin-3-ylmethylene)amino)imidazolidine-2,4-dione] | 3200 nM | 45600 nM | 620 nM | 2300 nM
O=C1CN(N=Cc2ccc(O)cc2O)C(=O)N1 [compound 12, 1-((2,4-Dihydroxybenzylidene)amino)imidazolidine-2,4-dione] | 150 nM | > 100000 nM | 59900 nM | 5800 nM
COc1ccc(C=NN2CC(=O)NC2=O)cc1 [compound 3, 1-((4-Methoxybenzylidene)amino)imidazolidine-2,4-dione] | 4700 nM | 57600 nM | 6400 nM | 1200 nM
O=C1CN(N=Cc2ccccc2)C(=O)N1 [compound 2, 1-(Benzylideneamino)-imidazolidine-2,4-dione] | 5600 nM | 39600 nM | 900 nM | 3500 nM
O=C1CN(N=Cc2ccc([N+](=O)[O-])cc2)C(=O)N1 [compound 4, 1-((4-Nitrobenzylidene)amino)imidazolidine-2,4-dione] | 2800 nM | > 100000 nM | 11100 nM | 7400 nM
O=C1CN(N=Cc2ccccn2)C(=O)N1 [compound 14, 1-((Pyridin-2-ylmethylene)amino)imidazolidine-2,4-dione] | 1300 nM | 51800 nM | 4200 nM | 4500 nM
O=C1CN(N=CCCCC=NN2CC(=O)NC2=O)C(=O)N1 [compound 6, 1,1’-((Pentane-1,5-diylidene)bis(azaneylylidene))bis(imidazolidine-2,4-dione)] | 160 nM | 19100 nM | 4000 nM | 1100 nM
COC(=O)c1ccc(C=NN2CC(=O)NC2=O)cc1 [compound 5, Methyl 4-(((2,4-dioxoimidazolidin-1-yl)imino)methyl)benzoate] | 930 nM | > 100000 nM | 8300 nM | 4900 nM
O=C1CN(N=Cc2ccncc2)C(=O)N1 [compound 16, 1-((Pyridin-4-ylmethylene)amino)imidazolidine-2,4-dione] | 810 nM | 26600 nM | 3300 nM | 1600 nM
CCOC(=O)/C=C/C=NN1CC(=O)NC1=O [compound 9, Ethyl (2E)-4-((2,4-dioxoimidazolidin-1-yl)imino)but-2-enoate] | 440 nM | 45900 nM | 23600 nM | 810 nM
O=C1CN(N=Cc2ccc(OCc3ccccc3)cc2)C(=O)N1 [compound 8, 1-((4-(Benzyloxy)benzylidene)amino)imidazolidine-2,4-dione] | 910 nM | > 100000 nM | 540 nM | 350 nM
O=C1CN(N=Cc2ccc(B(O)O)cc2)C(=O)N1 [compound 13] | 230 nM | 90700 nM | 14200 nM | 7300 nM
COc1ccc(/C=C/C=NN2CC(=O)NC2=O)cc1 [compound 11, 1-(((2e)-3–(4-methoxyphenyl)allylidene)amino)imidazolidine-2,4-dione] | 360 nM | > 100000 nM | 3100 nM | 400 nM
